The values below come from publication PMC7355546, “Lignans, Amides, and Saponins from Haplophyllum tuberculatum and Their Antiprotozoal Activity” (Molecules, 2020).

For one series, the system named is P. falciparum (NF54). The series is described as follows: Activity against Plasmodium falciparum erythrocytic stages (3H-hypoxanthine incorporation). The class given is cell-based. The following applies: for P. falciparum SI (selectivity index): IC50 in L6 cells divided by IC50 in P. falciparum.
Series [1] relates to T. b. rhodesiense (STIB 900) bloodstream forms. The experiment in a line: Activity against Trypanosoma brucei rhodesiense bloodstream forms (resazurin). The class given is cell-based. The following applies: for T. b. rhodesiense SI (selectivity index): IC50 in L6 cells divided by IC50 in T. b. rhodesiense; for IC50: read-out: T. b. rhodesiense IC50; for activity against T. b. rhodesiense (in words): STIB 900. Here is the method:
The stock was originally isolated from a patient and adapted to axenic culture conditions after several mouse passages and cloned. Minimum Essential Medium (50 µL) supplemented with 25 mM HEPES, 1 g/L additional glucose, 1% MEM non-essential amino acids (100×), 0.2 mM 2-mercaptoethanol, 1mM Na-pyruvate and 15% heat inactivated horse serum was added to each well of a 96-well microtiter plate. […] Then 4 × 10^3 bloodstream forms of T. b. rhodesiense STIB 900 in 50 µL were added to each well and the plate incubated at 37 °C under a 5% CO2 atmosphere for 70 h. […] Melarsoprol (Arsobal Sanofi-Aventis, received from WHO) was used as control.

Series [2] can be described thus: In vitro cytotoxicity with L-6 cells (resazurin). The class given is cell-based. The following applies: unit inferred, the other IC50 columns are µM, read-out: L6 Cells (cytotoxicity IC50). The method, then: Assays were performed in 96-well microtiter plates, each well containing 100 μL of RPMI 1640 medium supplemented with 1% L-glutamine (200 mM) and 10% fetal bovine serum, and 4000 L-6 cells (a primary cell line derived from rat skeletal myoblasts). […] 10 μL of resazurin was then added to each well and the plates incubated for another 2 h. […] Podophyllotoxin (Sigma P4405) was used as control.
(Alamar Blue is a resazurin reagent that responds to reducing activity.)

In series [3] the test system is L. donovani intracellular amastigotes in mouse peritoneal macrophages. The experiment in a line: Activity against Leishmania donovani intramacrophage amastigotes. Particulars: tested up to 30 μM. The class given is cell-based. The method, then: Mouse peritoneal macrophages (4 × 10^4 in 100 µL RPMI 1640 medium with 10% heat-inactivated FBS) were seeded into wells of a 96-well plate. After 24 h, 100 µL of 2 × 10^5 amastigote Leishmania donovani were added. The amastigotes were taken from an axenic amastigote culture grown at pH 5.4. The medium containing free amastigote forms was removed after 24 h and replaced with fresh medium. The washing step was repeated and afterwards the serial drug dilution was prepared with at least 6 dilution steps. Compound was dissolved in DMSO at 10 mg/mL and further diluted in medium. After incubation for 96 h at 37 °C under a 5% CO2 atmosphere, the medium was removed and cells were fixed by adding 50 µL 4% formaldehyde solution followed by a staining with a 5 µM DRAQ5 solution. Plates were imaged in ImageXpress XLS (MD) microscope using a 20× air objective (635 nm excitation: 690/50 emission). Nine images were collected per well. Automated image analysis was performed with a script developed on Meta Xpress Software (MD). Three outputs were provided for each well: (i) number of host cell nuclei; (ii) numbers of infected and non-infected host cells; (iii) number of parasite nuclei per infected host cell. The IC50 values were calculated based on the infection rate and the numbers of intracellular amastigotes. Miltefosine was used as control.

The subject of series [4] is L. donovani promastigote form. On the set-up: method as in PMID 18688887. Particulars: cited from earlier work.
The test system of a further series is P. falciparum. Particulars: cited from earlier work.
Another series deals with trypanosomes. The following applies: cited from earlier work.
The mark [5] stands for this setting: Plasmodium falciparum, NF54, NF54, mean of at least two independent replicates ± absolute deviation, read-out: P. falciparum IC50.
[6] abbreviates: Trypanosoma brucei, STIB 900 bloodstream forms, mean of at least two independent replicates ± absolute deviation.
Setting [7] is: NF54, mean of at least two independent replicates ± absolute deviation, read-out: P. falciparum IC50.
Setting [8] is: L-6 cells (rat skeletal myoblasts).
[9] abbreviates: STIB 900 bloodstream forms, mean of at least two independent replicates ± absolute deviation.

Several values for one entry are separate records, joined by “and”; a condition that tells them apart may be missing. Identical values can stand only once. Like-named read-outs stand apart in the source and are kept apart here. A value given as a limit tells only on which side of the number the result lay.

Consider `COc1cc([C@H]2O[C@@H](c3ccc(O)c(OC)c3)[C@@H](C)[C@H]2C)ccc1O` [Compound 1, tetrahydrofuroguaiacin B], for which the “P. falciparum SI (selectivity index)” value with P. falciparum (NF54) is 1.8. For the same compound, the IC50 was 53.1 ± 2 µM in the series on P. falciparum (NF54) (setting [5]) and 59.4 ± 2.5 µM in series [1] (setting [6]). In addition, the “T. b. rhodesiense SI (selectivity index)” value in series [1] turned out to be 1.6. In addition, in series [2] (rat skeletal myoblasts), the IC50 at 72 h amounted to 95.2 ± 9.3 µM.

For `COc1cc([C@H]2O[C@@H](c3ccc(O)c(OC)c3)[C@H](C)[C@@H]2C)ccc1O` [Compound 2, nectandrin B], in the series on P. falciparum (NF54), the “P. falciparum SI (selectivity index)” value is reported as 12.1. For the same compound, the IC50 is 9.5 ± 0.1 µM in the series with P. falciparum (NF54) (setting [7]); 9 to 9.5 µM in the series on P. falciparum (NF54) (setting [5]); 48.3 ± 1.3 µM in series [1] (setting [6]); above 30 µM in series [3] (Leishmania donovani, Peritoneal macrophage, read-out: activity against L. donovani in the intracellular amastigote assay). For the same compound, the “T. b. rhodesiense SI (selectivity index)” value in series [1] was found to be 2.4. In series [2] (rat skeletal myoblasts), the IC50 at 72 h stood at 115 ± 2.6 µM. The “activity against L. donovani in the intracellular amastigote assay” value in series [3] is “not reproduced”. In addition, the “activity against L. donovani promastigotes (in words)” value in series [4] is “inactive”.

Consider `COc1cc([C@H]2O[C@H](c3cc(OC)c(O)c(OC)c3)[C@@H](C)[C@@H]2C)cc(OC)c1O` [Compound 3, fragransin B2], for which the “P. falciparum SI (selectivity index)” value in the series on P. falciparum (NF54) was found to be 4.7. For the same compound, the values for the IC50 (in the series on P. falciparum (NF54) (setting [5]); in series [1] (setting [6])) were 36.1 ± 1 µM and 47.5 ± 4.5 µM, respectively. In series [1], the “T. b. rhodesiense SI (selectivity index)” value turned out to be 3.6.

For `COc1cc([C@H]2O[C@@H](c3cc(OC)c(O)c(OC)c3)[C@@H](C)[C@@H]2C)cc(OC)c1O` [Compound 4, fragransin B1], the “P. falciparum SI (selectivity index)” value with P. falciparum (NF54) worked out at 8.0. In addition, the IC50 with P. falciparum (NF54) (setting [7]) stood at 17.4 ± 2.1 µM; with P. falciparum (NF54) (setting [5]) it was 17 µM; in series [1] (setting [6]), 40.7 ± 0.4 µM. Also, in series [1], the “T. b. rhodesiense SI (selectivity index)” value worked out at 3.4. Moreover, the IC50 at 72 h in series [2] (setting [8]) is 163 ± 4.5 µM.

As for `COc1cc(CCC(=O)NCCc2ccc(O)cc2)ccc1O` [Compound 5, dihydro-feruloyltyramine], the “activity against P. falciparum (in words)” value in the series with P. falciparum (NF54) (NF54) is “least active”. Further, the IC50 with P. falciparum (NF54) (setting [5]) worked out at 159 µM; in series [1] (setting [6]), 206 ± 66.7 µM. Further, the “activity against T. b. rhodesiense (in words)” value in series [1] is reported as “least active”. Also, in series [2] (setting [8]), the IC50 at 72 h was above 318 µM.

Take `COc1cc(/C=C/C(=O)NCCc2ccc(O)cc2)ccc1O` [Compound 6, (E)-N-feruloyltyramine]: in the series with P. falciparum (NF54), the “P. falciparum SI (selectivity index)” value is 3.6. Besides, the IC50 in the series on P. falciparum (NF54) (setting [5]) amounted to 68.4 ± 3.8 µM; in series [1] (setting [6]), 121 ± 36.9 µM. Also, the “T. b. rhodesiense SI (selectivity index)” value in series [1] stood at 2.0. Moreover, the “activity against T. b. rhodesiense (in words)” value in series [1] is recorded as “least active”. Further, the IC50 at 72 h in series [2] (rat skeletal myoblasts) amounted to 247 ± 3.7 µM.

Regarding `COc1cc(C(=O)/C(C)=C(/C)C(=O)c2ccc(O)c(OC)c2)ccc1O` [Compound 7, furoguaiaoxidin], the IC50 is 48.1 ± 10.9 µM in the series with P. falciparum (NF54) (setting [5]) and 114 µM in series [1] (setting [6]). In addition, the IC50 at 72 h in series [2] (setting [8]) is above 281 µM.

For `COc1cc(/C=C/C(=O)NCCCCNC(=O)/C=C/c2ccc(O)c(OC)c2)ccc1O` [Compound 8, N,N′-diferuloylputrescine], the “P. falciparum SI (selectivity index)” value with P. falciparum (NF54) came to 4.8. Also, the IC50 came to 30.6 ± 8.3 µM in the series on P. falciparum (NF54) (setting [5]), 18.9 ± 8.4 µM in series [1] (setting [9]) and 19 µM in series [1] (setting [6]). The “T. b. rhodesiense SI (selectivity index)” value in series [1] was 8 and 7.8. For the same compound, the IC50 at 72 h in series [2] (setting [8]) is 146 ± 18.8 µM.

Consider `CCOC(CNC(=O)/C=C/c1ccc(O)c(OC)c1)c1ccc(O)cc1` (centres unmarked) [Compound 9, 7′-ethoxy-feruloyltyramine], for which the “P. falciparum SI (selectivity index)” value with P. falciparum (NF54) came to 6.8. Also, the results for the IC50 (in the series with P. falciparum (NF54) (setting [5]); in series [1] (setting [6])) were 30.4 ± 8 µM and 72.7 ± 30.4 µM, respectively. For the same compound, in series [1], the “T. b. rhodesiense SI (selectivity index)” value worked out at 2.9. The IC50 at 72 h in series [2] (setting [8]) was found to be 208 ± 21.6 µM.

Turning to `COc1cc(CC(C)C(CO)Cc2ccc(O)c(OC)c2)ccc1O` (centres unmarked) [Compound 10, 3,3′-dimethoxy-4,4′-dihydroxylignan-9-ol], in the series with P. falciparum (NF54), the “P. falciparum SI (selectivity index)” value is on record as 13.7. In the series with P. falciparum (NF54) (NF54), the “activity against P. falciparum (in words)” value is listed as “selectively active”. Further, the IC50 in the series with P. falciparum (NF54) (setting [7]) is 9.3 ± 1.3 µM; in the series on P. falciparum (NF54) (setting [5]) it was 9 to 9.5 µM; in series [1] (setting [9]), 27.5 ± 8.4 µM; in series [1] (setting [6]), 28 µM. In series [1], the “T. b. rhodesiense SI (selectivity index)” value was 5 and 4.6. The IC50 at 72 h in series [2] (setting [8]) stood at 128 ± 3.9 µM.

With `COc1cc2c(OC)c3c(c(-c4ccc5c(c4)OCO5)c2cc1OC)C(=O)OC3` [Justicidin A], the “activity against P. falciparum (in words)” value with P. falciparum is on record as “active”.

In the case of `COc1cc2cc3c(c(-c4ccc5c(c4)OCO5)c2cc1OC)C(=O)CO3` [Justicidin B], the “trypanocidal activity (in words)” value in the series on trypanosomes is given as “showed trypanocidal activity”.

Turning to `CCN(CC)CCCC(C)Nc1ccnc2cc(Cl)ccc12` (centres unmarked) [chloroquine, reference compound], the IC50 in the series on P. falciparum (NF54) (Plasmodium falciparum, NF54, read-out: P. falciparum IC50) came to 0.01 µM.

Turning to `Nc1nc(N)nc(Nc2ccc([As]3SCC(CO)S3)cc2)n1` (centres unmarked) [melarsoprol, reference compound], in series [1] (Trypanosoma brucei), the IC50 stood at 0.01 µM.

Take `COc1cc([C@@H]2c3cc4c(cc3[C@H](O)[C@H]3COC(=O)[C@H]23)OCO4)cc(OC)c1OC` [podophyllotoxin, reference compound]: the IC50 at 72 h in series [2] (rat skeletal myoblasts) was determined as 0.03 µM.
